The values below come from patent US20050245455A1, “Gonadotropin releasing hormone antagonists in gel-forming concentrations” (priority 2001, published 2005).

Where a SMILES comes first, the peptide text is derived from it. [ ]: non-standard residue; d: D form. The star is where a group is joined. dPhe(4-NHCONH2) = NC(=O)Nc1ccc(C[C@@H](N)C(=O)O)cc1; Dihydroorotyl(S) = O=C1C[C@@H](C(=O)*)NC(=O)N1; dPhe(4-Cl) = N[C@H](Cc1ccc(Cl)cc1)C(=O)O; Phe(4-NH2) = Nc1ccc(C[C@H](N)C(=O)O)cc1; d2Nal = N[C@H](Cc1ccc2ccccc2c1)C(=O)O; Lys(iPr) = CC(C)NCCCC[C@H](N)C(=O)O; d3Pal = N[C@H](Cc1cccnc1)C(=O)O

The conditions of the series: dog, in vivo, sc.

On to `CC(=O)N[C@H](Cc1ccc2ccccc2c1)C(=O)N[C@H](Cc1ccc(Cl)cc1)C(=O)N[C@H](Cc1cccnc1)C(=O)N[C@@H](CO)C(=O)N[C@@H](Cc1ccc(NC(=O)[C@@H]2CC(=O)NC(=O)N2)cc1)C(=O)N[C@H](Cc1ccc(NC(N)=O)cc1)C(=O)N[C@@H](CC(C)C)C(=O)N[C@@H](CCCCNC(C)C)C(=O)N1CCC[C@H]1C(=O)N[C@H](C)C(N)=O` [Peptide 1, Ac-DNal-DCpa-DPal-Ser-Aph(L-Hor)-DAph(CONH2)-Leu-Lys(iPr)-Pro-DAla-NH2] (Ac-[d2Nal][dPhe(4-Cl)][d3Pal]S[Phe(4-NH2)](Dihydroorotyl(S))[dPhe(4-NHCONH2)]L[Lys(iPr)]P[dA]-NH2), for which the “Fraction of the total dose absorbed, subcutaneous compared to intramuscular administration” value is “almost twice as high”.
